Assay results reported in patent US9458181B2, “Cathepsin cysteine protease inhibitors” (Merck Sharp & Dohme Corp., priority 2013, dated 2016).

Assays:
human cathepsin K = human cathepsin K (UniProt P43236); assay: Cathepsin K Assay (hrbCat K); assay type: biochemical; conditions: human cathepsin K 0.4 nM, Z-Leu-Arg-AMC 8 μM, pH 5.5, 15 min preincubation; read-out: hrbCat K IP
Procedure, shortened: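 Human cathepsin K (0.4 nM) in pH 5.5 MES buffer with EDTA, DTT and 10% DMSO was preincubated 15 min at room temperature with compound from a ⅓ dilution series (500-0.025 μM DMSO stocks). Z-Leu-Arg-AMC (8 μM) was then added, and AMC release was followed fluorometrically (Ex 360/Em 460 nm) for 30 min; inhibition was fitted to a dose-response model.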

human cathepsin F = target: T1, human cathepsin F (Homo sapiens, UniProt Q9UBX1); assay: Cathepsin F assay (hCat F); assay type: biochemical; conditions: human cathepsin F 10 nM, Z-Phe-Arg-AMC 8 μM, pH 5.5, 15 min preincubation; read-out: hCat F IP
T1 sequence (Q9UBX1 271-484): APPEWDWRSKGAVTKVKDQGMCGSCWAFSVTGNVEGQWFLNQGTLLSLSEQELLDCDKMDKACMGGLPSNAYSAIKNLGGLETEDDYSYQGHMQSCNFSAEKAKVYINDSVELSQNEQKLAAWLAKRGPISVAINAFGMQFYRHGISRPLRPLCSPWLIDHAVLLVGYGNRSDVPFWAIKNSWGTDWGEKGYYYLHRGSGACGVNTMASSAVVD
Procedure, shortened: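 Fluorogenic read-out: cleavage of Z-Phe-Arg-AMC (8 μM in added buffer) was followed at Ex 360/Em 460 nm for 20 min, with dose-response fitting of percent inhibition. Before substrate addition, 10 nM human enzyme was incubated 15 min at room temperature with compounds (DMSO stocks 500–0.025 μM) in pH 5.5 MES/EDTA/DTT buffer containing 10% DMSO.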

IC50 (human cathepsin K) [nM]	IC50 (human cathepsin F) [nM]	SMILES
1.3	1670	N#CC1(NC(=O)[C@@H]2CCCC[C@H]2c2oc(-c3ccc(OC(F)F)nc3)nc2-c2ccc(N3CCS(=O)(=O)CC3)cc2)CC1 [Example 91, (1R,2R)-N-(1-cyanocyclopropyl)-2-(2-(6-(difluoromethoxy)pyridin-3-yl)-4-(4-(1,1-dioxidothiomorpholino)phenyl)oxazol-5-yl)cyclohexanecarboxamide]
0.85	442	N#CC1(NC(=O)[C@@H]2CCCC[C@H]2c2oc(-c3cc(F)cc(F)c3)nc2-c2ccc(N3CCS(=O)(=O)CC3)cc2)CC1 [Example 34, (1R,2R)-N-(1-cyanocyclopropyl)-2-(2-(3,5-difluorophenyl)-4-(4-(1,1-dioxidothiomorpholino)phenyl)oxazol-5-yl) cyclohexanecarboxamide]
1.35	819	CC(C)(C)c1ccc(-c2nc(-c3ccc(N4CCS(=O)(=O)CC4)cc3)c([C@@H]3CCCC[C@H]3C(=O)NC3(C#N)CC3)o2)cc1 [Example 89, (1R,2R)-2-(2-(4-(tert-butyl)phenyl)-4-(4-(1,1-dioxidothiomorpholino)phenyl)oxazol-5-yl)-N-(1-cyanocyclopropyl) cyclohexanecarboxamide]
1.28	308	N#CC1(NC(=O)[C@@H]2CCCC[C@H]2c2oc(-c3ccc(Cl)cc3)nc2-c2ccc(N3CCS(=O)(=O)CC3)cc2)CC1 [Example 38, (1R,2R)-2-(2-(4-chlorophenyl)-4-(4-(1,1-dioxidothiomorpholino)phenyl)oxazol-5-yl)-N-(1-cyanocyclopropyl) cyclohexanecarboxamide]

The next lines start with the compound.

SMILES	IC50 (human cathepsin K) [nM]	IC50 (human cathepsin F) [nM]
CC1(C)C(c2nc(-c3ccc(N4CCS(=O)(=O)CC4)cc3)c([C@@H]3CCCC[C@H]3C(=O)NC3(C#N)CC3)o2)C1(C)C [Example 113, (1R,2R)-N-(1-cyanocyclopropyl)-2-(4-(4-(1,1-dioxidothiomorpholino)phenyl)-2-(2,2,3,3-tetramethylcyclopropyl)oxazol-5-yl)cyclohexanecarboxamide]	4.21	2450
CC(C)(c1nc(-c2ccc(N3CCS(=O)(=O)CC3)cc2)c([C@@H]2CCCC[C@H]2C(=O)NC2(C#N)CC2)o1)C(F)(F)F [Example 115, (1R,2R)-N-(1-cyanocyclopropyl)-2-(4-(4-(1,1-dioxidothiomorpholino)phenyl)-2-(1,1,1-trifluoro-2-methylpropan-2-yl)oxazol-5-yl)cyclohexanecarboxamide]	1.34	1770
N#CC1(NC(=O)[C@@H]2CCCC[C@H]2c2oc(C3C4CC3C4)nc2-c2ccc(N3CCS(=O)(=O)CC3)cc2)CC1 (stereo partly drawn) [Example 98, (1R,2R)-2-(2-(bicyclo[1.1.1]pentan-2-yl)-4-(4-(1,1-dioxidothiomorpholino)phenyl)oxazol-5-yl)-N-(1-cyanocyclopropyl) cyclohexanecarboxamide]	1.43	2310
CC(C)(O)C(C#N)NC(=O)[C@@H]1CCCC[C@H]1c1oc(-c2ccc(F)cc2)nc1-c1ccc(N2CCS(=O)(=O)CC2)cc1 (single isomer, unassigned) [Example 158, (1R,2R)-N-((R or S)-1-cyano-2-hydroxy-2-methylpropyl)-2-(4-(4-(1,1-dioxidothiomorpholino)phenyl)-2-(4-fluorophenyl)oxazol-5-yl)cyclohexanecarboxamide]	9740	≥ 10000
CC(C)(C)c1nc(-c2ccc(N3CCS(=O)(=O)CC3)cc2)c([C@@H]2CCCC[C@H]2C(=O)NC2(C#N)CC2)s1 [Example 10, (1R,2R)-2-(2-(tert-butyl)-4-(4-(1,1-dioxidothiomorpholino)phenyl)thiazol-5-yl)-N-(1-cyanocyclopropyl)cyclohexanecarboxamide]	1.65	1440
Cc1nc(-c2ccc(N3CCS(=O)(=O)CC3)cc2)c([C@@H]2CCC(F)(F)C[C@H]2C(=O)NC2(C#N)CC2)s1 [Example 59, (1R,2R)-N-(1-cyanocyclopropyl)-2-(4-(4-(1,1-dioxidothiomorpholino)phenyl)-2-methylthiazol-5-yl)-5,5-difluorocyclohexane-carboxamide]	0.51	389
